Reference: patent US9216999B2, “Substituted pyrrolo[2,3-h][1,6]naphthyridines and compositions thereof as JAK inhibitors” (priority 2011, dated 2015)
Read-outs that look alike come from different tables or passages of the source.

Experiments:
Type in all cases: biochemical
Tyk2 = Tyk2 (Homo sapiens (Human), UniProt P29597); assay: Enzyme assay (Assay Example^a 1), Tyk2; conditions: ATP 100 μM
JAK1 = JAK1 (Homo sapiens (Human), UniProt P23458); assay: Enzyme assay (Assay Example^a 1), JAK1; conditions: ATP 100 μM
JAK3 = JAK3 (Homo sapiens (Human), UniProt P52333); assay: Enzyme assay (Assay Example^a 1), JAK3
JAK2 = JAK2 (Homo sapiens (Human), UniProt O60674); assay: Enzyme assay (Assay Example^a 1), JAK2

Tyk2, sequence (P29597 whole entry): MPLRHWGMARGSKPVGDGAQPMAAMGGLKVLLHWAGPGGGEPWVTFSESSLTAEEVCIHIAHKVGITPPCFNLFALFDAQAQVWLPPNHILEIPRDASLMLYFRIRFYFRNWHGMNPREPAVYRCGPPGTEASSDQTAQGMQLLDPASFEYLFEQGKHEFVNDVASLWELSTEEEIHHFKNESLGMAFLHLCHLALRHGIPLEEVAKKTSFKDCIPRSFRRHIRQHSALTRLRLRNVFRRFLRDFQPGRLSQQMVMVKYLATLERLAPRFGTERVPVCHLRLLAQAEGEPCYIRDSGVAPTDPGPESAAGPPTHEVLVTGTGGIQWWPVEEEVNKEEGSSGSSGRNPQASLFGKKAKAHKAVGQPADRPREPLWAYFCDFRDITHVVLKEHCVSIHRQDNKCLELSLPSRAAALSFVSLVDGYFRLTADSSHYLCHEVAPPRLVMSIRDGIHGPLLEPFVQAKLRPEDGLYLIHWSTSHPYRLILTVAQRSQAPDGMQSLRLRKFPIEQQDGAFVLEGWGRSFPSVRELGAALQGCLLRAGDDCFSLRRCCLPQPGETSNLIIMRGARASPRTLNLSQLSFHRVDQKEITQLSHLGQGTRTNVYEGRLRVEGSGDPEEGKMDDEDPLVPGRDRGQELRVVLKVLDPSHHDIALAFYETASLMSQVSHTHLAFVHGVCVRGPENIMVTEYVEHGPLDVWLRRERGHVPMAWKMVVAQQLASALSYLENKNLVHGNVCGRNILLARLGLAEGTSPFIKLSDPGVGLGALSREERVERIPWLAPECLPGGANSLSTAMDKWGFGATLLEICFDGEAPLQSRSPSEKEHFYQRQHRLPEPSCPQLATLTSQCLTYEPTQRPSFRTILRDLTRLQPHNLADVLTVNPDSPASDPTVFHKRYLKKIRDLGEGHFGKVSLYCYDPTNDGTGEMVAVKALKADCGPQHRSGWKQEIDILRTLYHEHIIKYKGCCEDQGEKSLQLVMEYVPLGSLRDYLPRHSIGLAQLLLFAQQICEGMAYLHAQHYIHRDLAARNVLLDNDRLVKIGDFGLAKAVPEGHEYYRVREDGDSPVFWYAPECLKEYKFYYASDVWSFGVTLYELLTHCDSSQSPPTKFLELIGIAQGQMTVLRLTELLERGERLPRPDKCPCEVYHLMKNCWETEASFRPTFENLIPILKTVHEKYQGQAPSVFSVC
JAK3, sequence (P52333 whole entry): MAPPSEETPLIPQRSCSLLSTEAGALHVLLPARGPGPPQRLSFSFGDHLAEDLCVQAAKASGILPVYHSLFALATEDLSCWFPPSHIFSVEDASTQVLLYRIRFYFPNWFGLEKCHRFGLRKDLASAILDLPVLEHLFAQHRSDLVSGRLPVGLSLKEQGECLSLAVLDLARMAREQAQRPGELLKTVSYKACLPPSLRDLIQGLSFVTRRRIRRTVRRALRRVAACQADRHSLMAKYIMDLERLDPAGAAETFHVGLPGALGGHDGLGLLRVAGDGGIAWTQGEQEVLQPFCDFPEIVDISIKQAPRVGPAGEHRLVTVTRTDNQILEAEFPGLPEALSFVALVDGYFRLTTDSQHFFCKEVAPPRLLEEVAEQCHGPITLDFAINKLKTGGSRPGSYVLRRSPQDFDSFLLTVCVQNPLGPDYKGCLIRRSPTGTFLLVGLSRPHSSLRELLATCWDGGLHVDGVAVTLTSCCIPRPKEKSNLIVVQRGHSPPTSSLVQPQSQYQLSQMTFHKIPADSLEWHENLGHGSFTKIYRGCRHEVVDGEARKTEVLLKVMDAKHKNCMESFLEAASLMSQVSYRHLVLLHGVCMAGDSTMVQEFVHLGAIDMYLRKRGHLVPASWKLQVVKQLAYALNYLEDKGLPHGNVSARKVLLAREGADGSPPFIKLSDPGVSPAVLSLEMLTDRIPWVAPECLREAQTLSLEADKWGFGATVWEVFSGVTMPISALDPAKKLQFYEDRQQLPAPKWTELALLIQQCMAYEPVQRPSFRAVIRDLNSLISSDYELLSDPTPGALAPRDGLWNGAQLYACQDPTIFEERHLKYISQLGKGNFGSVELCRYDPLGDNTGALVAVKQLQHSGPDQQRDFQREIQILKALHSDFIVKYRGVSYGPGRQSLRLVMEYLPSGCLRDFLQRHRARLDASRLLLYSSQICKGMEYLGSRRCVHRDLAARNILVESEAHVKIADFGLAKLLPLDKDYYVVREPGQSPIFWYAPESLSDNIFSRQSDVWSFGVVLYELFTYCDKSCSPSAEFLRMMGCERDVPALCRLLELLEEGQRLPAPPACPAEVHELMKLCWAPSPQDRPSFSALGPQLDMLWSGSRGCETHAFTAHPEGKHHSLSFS

Structure (SMILES)	IC50 (Tyk2) [µM]	IC50 (JAK1) [µM]	IC50 (JAK3; ATP 100 μM) [µM]	IC50 (JAK2; ATP 100 μM) [µM]	IC50 (Tyk2; Table^a 154) [µM]	IC50 (JAK1; Table^a 154) [µM]	IC50 (JAK3; ATP 100 μM, Table^a 154) [µM]	IC50 (JAK2; ATP 100 μM, Table^a 154) [µM]	IC50 (JAK2) [µM]	IC50 (JAK3) [µM]
CN1CCC(c2nnn3cnc4[nH]ccc4c23)CC1 [compound 216, 1-(1-methylpiperidin-4-yl)-7H-pyrrolo[3,2-e][1,2,3]triazolo[1,5-c]pyrimidine]	> 1	0.38	> 1						> 1	
N#Cc1cc(CN2CCC(c3nnn4cnc5[nH]ccc5c34)CC2)ccc1C(F)(F)F [compound 243, 5-{[4-(7H-pyrrolo[3,2-e][1,2,3]triazolo[1,5-c]pyrimidin-1-yl)piperidin-1-yl]methyl}-2-(trifluoromethyl)benzonitrile]	> 1	0.044	> 1	0.29						
CC(C#N)[C@H]1CC[C@H](c2nnn3cnc4[nH]ccc4c23)CC1 (stereo partly drawn) [439b, 2-[trans-4-(7H-Pyrrolo[3,2-e][1,2,3]triazolo[1,5-c]pyrimidin-1-yl)cyclohexyl]propanenitrile]	0.025	0.0031	0.33	0.0067						
c1cc2c(ncn3nnc(C4CCCCC4)c23)[nH]1 [compound 6]	0.046	0.0038	0.15	0.012						
N#Cc1ccc(N2CCC(c3nnn4cnc5[nH]ccc5c34)CC2)cc1 [compound 376, 4-[4-(7H-Pyrrolo[3,2-e][1,2,3]triazolo[1,5-c]pyrimidin-1-yl)piperidin-1-yl]benzonitrile]	> 1	0.019	> 1	0.19						
FCCNC[C@H]1CC[C@H](c2nnn3cnc4[nH]ccc4c23)CC1 [compound 107]					0.036	0.0028		0.055		0.28
Clc1cc(CN2CCC(c3nnn4cnc5[nH]ccc5c34)CC2)ccn1 [compound 160]					0.26	0.0053	0.35	0.021		
CC(C)NC[C@H]1CC[C@H](c2nnn3cnc4[nH]ccc4c23)CC1 [compound 331, N-{[trans-4-(7H-pyrrolo[3,2-e][1,2,3]triazolo[1,5-c]pyrimidin-1-yl)cyclohexyl]methyl}propan-2-amine]	0.42	0.0088	> 1	0.054						
O=C(N[C@H]1CCN(C[C@H]2CC[C@H](c3nnn4cnc5[nH]ccc5c34)CC2)C1)C(F)(F)F [compound 321, N-((S)-1-{[trans-4-(7H-pyrrolo[3,2-e][1,2,3]triazolo[1,5-c]pyrimidin-1-yl)cyclohexyl]methyl}pyrrolidin-3-yl)-2,2,2-trifluoroacetamide]	> 1	0.024	> 1	0.21						
FC(F)(F)CN[C@H]1CC[C@H](c2nnn3cnc4[nH]ccc4c23)CC1 [395b, trans-4-(7H-pyrrolo[3,2-e][1,2,3]triazolo[1,5-c]pyrimidin-1-yl)-N-(2,2,2-trifluoroethyl)cyclohexanamine]	0.15	0.0022	0.61	0.01						
O[C@H]1CCCC[C@H]1CNC[C@H]1CC[C@H](c2nnn3cnc4[nH]ccc4c23)CC1 (relative stereo) [compound 312, cis-2-[({[trans-4-(7H-pyrrolo[3,2-e][1,2,3]triazolo[1,5-c]pyrimidin-1-yl)cyclohexyl]methyl}amino)methyl]cyclohexanol]	0.37	0.012	> 1	0.045						
N#CCNC(=O)C[C@H]1CC[C@@H](c2nnn3cnc4[nH]ccc4c23)CC1 [443a, 2-[cis-4-(7H-Pyrrolo[3,2-e][1,2,3]triazolo[1,5-c]pyrimidin-1-yl)cyclohexyl]-N-(cyanomethyl)acetamide]	0.54	0.026	0.73	0.06						
O=C(Nc1ccc(F)cc1)[C@H]1CC[C@H](c2nnn3cnc4[nH]ccc4c23)CC1 [compound 206, trans-N-(4-Fluorophenyl)-4-(7H-pyrrolo[3,2-e][1,2,3]triazolo[1,5-c]pyrimidin-1-yl)cyclohexanecarboxamide]					> 1	0.27	> 1	> 1		

The next lines start with results.

IC50 (Tyk2) [µM]	IC50 (JAK1) [µM]	IC50 (JAK3; ATP 100 μM) [µM]	IC50 (JAK2; ATP 100 μM) [µM]	IC50 (Tyk2; Table^a 154) [µM]	IC50 (JAK1; Table^a 154) [µM]	IC50 (JAK3; ATP 100 μM, Table^a 154) [µM]	IC50 (JAK2; ATP 100 μM, Table^a 154) [µM]	Structure (SMILES)	IC50 (JAK2) [µM]	IC50 (JAK3) [µM]
0.86	0.018	0.26	0.052					FC1(F)CN(C[C@H]2CC[C@H](c3nnn4cnc5[nH]ccc5c34)CC2)C1 [compound 339, 1-{trans-4-[(3,3-difluoroazetidin-1-yl)methyl]cyclohexyl}-7H-pyrrolo[3,2-e][1,2,3]triazolo[1,5-c]pyrimidine]		
0.75	0.0034	0.66	0.034					Fc1ccc(C2(NC[C@H]3CC[C@H](c4nnn5cnc6[nH]ccc6c45)CC3)CCC2)cc1 [compound 324, N-{[trans-4-(7H-pyrrolo[3,2-e][1,2,3]triazolo[1,5-c]pyrimidin-1-yl)cyclohexyl]methyl}-1-(4-fluorophenyl)cyclobutanamine]		
0.24	0.0048	0.29	0.013					N#CC(C#N)=C[C@H]1CC[C@H](c2nnn3cnc4[nH]ccc4c23)CC1 [compound 431, 2-{[trans-4-(7H-Pyrrolo[3,2-e][1,2,3]triazolo[1,5-c]pyrimidin-1-yl)cyclohexyl]methylene}malononitrile]		
0.08	0.0052	0.39	0.07					N#Cc1ccc(CCNC[C@H]2CC[C@H](c3nnn4cnc5[nH]ccc5c34)CC2)cc1 [compound 282, 4-[2-({[trans-4-(7H-pyrrolo[3,2-e][1,2,3]triazolo[1,5-c]pyrimidin-1-yl)cyclohexyl]methyl}amino)ethyl]benzonitrile]		
0.19	0.0038	0.73	0.065					CN(C)C[C@H]1CC[C@H](c2nnn3cnc4[nH]ccc4c23)CC1 [compound 296, 1-[trans-4-(7H-pyrrolo[3,2-e][1,2,3]triazolo[1,5-c]pyrimidin-1-yl)cyclohexyl]-N,N-dimethylmethanamine]		
0.27	0.0027	0.39	0.017					FC(F)(F)C1(NC[C@H]2CC[C@H](c3nnn4cnc5[nH]ccc5c34)CC2)CC1 [compound 292, N-{[trans-4-(7H-pyrrolo[3,2-e][1,2,3]triazolo[1,5-c]pyrimidin-1-yl)cyclohexyl]methyl}-1-(trifluoromethyl)cyclopropanamine]		
0.34	0.022	0.48	0.12					c1cc2c(ncn3nnc([C@H]4CC[C@H](CNC5COC5)CC4)c23)[nH]1 [compound 294, N-{[trans-4-(7H-pyrrolo[3,2-e][1,2,3]triazolo[1,5-c]pyrimidin-1-yl)cyclohexyl]methyl}oxetan-3-amine]		
				0.37	0.0028	0.36	0.033	O=C(NCCc1ccc(F)cc1)[C@H]1CC[C@H](c2nnn3cnc4[nH]ccc4c23)CC1 [compound 208, trans-N-(4-fluorophenethyl)-4-(7H-pyrrolo[3,2-e][1,2,3]triazolo[1,5-c]pyrimidin-1-yl)cyclohexanecarboxamide]		
0.36	0.0043	0.17	0.015					O=C(CC(F)(F)F)N(CC(F)(F)F)C[C@H]1CC[C@H](c2nnn3cnc4[nH]ccc4c23)CC1 [compound 411, N-{[trans-4-(7H-Pyrrolo[3,2-e][1,2,3]triazolo[1,5-c]pyrimidin-1-yl)cyclohexyl]methyl}-3,3,3-trifluoro-N-(2,2,2-trifluoroethyl)propanamide]		
0.91	0.0047	0.59	0.045					N#Cc1ccc(NC[C@H]2CC[C@H](c3nnn4cnc5[nH]ccc5c34)CC2)cc1C#N [compound 262, 4-({[trans-4-(7H-pyrrolo[3,2-e][1,2,3]triazolo[1,5-c]pyrimidin-1-yl)cyclohexyl]methyl}amino)phthalonitrile]		
				0.016	0.0054	0.28	0.039	Cc1ccc(CNC[C@H]2CC[C@H](c3nnn4cnc5[nH]ccc5c34)CC2)o1 [compound 182, 1-[trans-4-(7H-pyrrolo[3,2-e][1,2,3]triazolo[1,5-c]pyrimidin-1-yl)cyclohexyl]-N-[(5-methylfuran-2-yl)methyl]methanamine]		
0.44	0.01	0.33	0.063					OC(CNC[C@H]1CC[C@H](c2nnn3cnc4[nH]ccc4c23)CC1)C(F)(F)F (stereo partly drawn) [compound 343, 3-({[trans-4-(7H-pyrrolo[3,2-e][1,2,3]triazolo[1,5-c]pyrimidin-1-yl)cyclohexyl]methyl}amino)-1,1,1-trifluoropropan-2-ol]		
0.94	0.025	> 1	0.16					CC(C)(O)C1CCN(C[C@H]2CC[C@H](c3nnn4cnc5[nH]ccc5c34)CC2)CC1 [compound 311, 2-(1-{[trans-4-(7H-pyrrolo[3,2-e][1,2,3]triazolo[1,5-c]pyrimidin-1-yl)cyclohexyl]methyl}piperidin-4-yl)propan-2-ol]		
				0.34	0.0044	0.1	0.02	Fc1ccc(CN2CCC(c3nnn4cnc5[nH]ccc5c34)CC2)c(Cl)c1 [compound 165, 1-[1-(2-chloro-4-fluorobenzyl)piperidin-4-yl]-7H-pyrrolo[3,2-e][1,2,3]triazolo[1,5-c]pyrimidine]		
0.61	0.0043	0.23	0.023					Clc1ccc(CN2CCC(c3nnn4cnc5[nH]ccc5c34)CC2)c(Cl)n1 [compound 231, 1-{1-[(2,6-dichloropyridin-3-yl)methyl]piperidin-4-yl}-7H-pyrrolo[3,2-e][1,2,3]triazolo[1,5-c]pyrimidine]		
0.65	0.0081	0.61	0.035					c1cc(CN2CCC(c3nnn4cnc5[nH]ccc5c34)CC2)ccn1 [compound 239, 1-[1-(pyridin-4-ylmethyl)piperidin-4-yl]-7H-pyrrolo[3,2-e][1,2,3]triazolo[1,5-c]pyrimidine]		
